In patent US20200339548A1, “PYRIMIDINE DERIVATIVES AND THEIR USE FOR THE TREATMENT OF CANCER” (Adorx Therapeutics Limited, priority 2017, published 2020) one finds Ki and IC50 data, which are given here for 16 compounds.

The structures appear in SMILES notation. Counter-ions that a name gives are not always drawn.

The target of experiment [1] is T1, Adenosine A1 receptor (Homo sapiens, UniProt P30542).
T1 construct: expressed in transfected cells; host or cells: CHO cell membranes
T1 sequence (P30542 1-326): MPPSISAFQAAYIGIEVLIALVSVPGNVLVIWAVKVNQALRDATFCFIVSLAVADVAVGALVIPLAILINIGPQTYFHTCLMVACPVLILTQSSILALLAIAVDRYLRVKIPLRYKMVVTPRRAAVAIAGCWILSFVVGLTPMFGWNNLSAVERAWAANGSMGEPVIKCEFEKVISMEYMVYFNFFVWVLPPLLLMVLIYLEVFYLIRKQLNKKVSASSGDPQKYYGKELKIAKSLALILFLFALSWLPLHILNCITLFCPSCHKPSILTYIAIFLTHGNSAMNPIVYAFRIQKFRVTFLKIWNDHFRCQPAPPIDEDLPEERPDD
Put plainly: Adenosine receptor TR-FRET binding assay, A1. Particulars: Table 9, further testing; displacement of 100 nM CA200645, CHO cell membranes. A digest of the protocol: (§1)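 Competition TR-FRET binding in CHO cell membranes expressing terbium-labelled human receptors, displacing fluorescent XAC (CA200645; 30 nM for A2b, 100 nM for A1, A2a, A3); 2 h at room temperature with saponin buffer, 1% DMSO. 665/620 nm ratio; non-specific with 10 μM XAC; Ki by Cheng–Prusoff from IC50.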
For orientation: Time-resolved FRET reads energy transfer from a long-lived donor to a nearby acceptor.

In experiment [2] the target is T2, Adenosine A2b receptor (Homo sapiens, UniProt P29275).
T2 construct: expressed in transfected cells; host or cells: CHO cell membranes
T2 sequence (P29275 1-332): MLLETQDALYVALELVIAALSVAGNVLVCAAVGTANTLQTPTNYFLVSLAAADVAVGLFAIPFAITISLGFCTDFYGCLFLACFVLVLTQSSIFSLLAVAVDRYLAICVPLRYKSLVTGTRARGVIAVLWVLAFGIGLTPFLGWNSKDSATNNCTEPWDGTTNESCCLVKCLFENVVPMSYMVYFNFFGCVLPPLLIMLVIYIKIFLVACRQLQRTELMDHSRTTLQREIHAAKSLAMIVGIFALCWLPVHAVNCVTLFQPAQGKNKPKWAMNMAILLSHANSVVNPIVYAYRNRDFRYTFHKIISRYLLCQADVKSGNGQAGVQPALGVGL
Kind of experiment: Adenosine receptor TR-FRET binding assay, A2b. Particulars: Table 9, further testing; displacement of 30 nM CA200645, CHO cell membranes. The gist of the method: as §1

The subject of experiment [3] is Human PBMCs. Kind of experiment: CD3/CD28 stimulated IL-2 release NECA reversal assay. It is filed as cell-based. Particulars: Homo sapiens, PBMC, read-out: IL-2 release NECA reversal IC50 (nM), 1 uM NECA, 24 hours. The method, then: Blood is drawn from healthy volunteers using sodium citrate as the anticoagulant (0.3% final concentration). […] 50 μl diluted compound mix is added to the cells, to obtain final concentrations of 1 ug/ml CD28 antibody, 1 uM NECA and 0.003-10 μM adenosine receptor antagonist. Assay plates are incubated for 24 hours at 37° C. in a humidified incubator.

Experiment [4] concerns the target T3, Adenosine A2a receptor (Homo sapiens, UniProt P29274).
T3 construct: expressed in transfected cells; host or cells: CHO cell membranes
Put plainly: Adenosine receptor TR-FRET binding assay, A2a. Conditions: displacement of 100 nM CA200645, CHO cell membranes. The gist of the method:
as §1

Experiment [5] concerns the target T4, Adenosine A3 receptor (Homo sapiens, UniProt P0DMS8).
T4 construct: expressed in transfected cells; host or cells: CHO cell membranes
T4 sequence (P0DMS8 1-318): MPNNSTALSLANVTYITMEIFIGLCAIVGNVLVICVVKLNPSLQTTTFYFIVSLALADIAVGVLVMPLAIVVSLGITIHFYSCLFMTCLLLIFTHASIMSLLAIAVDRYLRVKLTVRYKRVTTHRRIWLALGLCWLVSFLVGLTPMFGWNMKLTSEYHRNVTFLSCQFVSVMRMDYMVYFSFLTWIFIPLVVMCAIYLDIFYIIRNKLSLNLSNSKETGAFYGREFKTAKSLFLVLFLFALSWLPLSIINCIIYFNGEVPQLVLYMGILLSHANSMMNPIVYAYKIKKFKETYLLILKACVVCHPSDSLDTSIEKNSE
Put plainly: Adenosine receptor TR-FRET binding assay, A3. Conditions: Table 9, further testing; displacement of 100 nM CA200645, CHO cell membranes; read-out: A3 Ki. The method, then:
All FRET binding experiments were conducted at room temperature in white 384-well plates, in assay binding buffer containing 1× LabMed (Cisbio, France), 100 μg/mL saponin, 1% DMSO and 0.02% pluronic acid. Binding of the fluorescently labelled Adenosine receptor antagonist XAC (CA200645, FRET acceptor) to terbium-labelled A1, A2a, A2b and A3 adenosine receptors (FRET donors) was detected by time-resolved FRET due to the close proximity of the donor and acceptor in a binding event. To investigate the ability of unlabelled test compounds to bind to Adenosine A1, A2a, A2b and A3 receptors, dose response curves were constructed that determined the ability of a range of concentrations to inhibit the binding of 30 nM CA200645 to the A2b receptor and 100 nM CA200645 to the A1, A2a, and A3 receptor.
Serial dilution (1:3 dilutions) of test compounds in neat DMSO and transfer of a 400 nL sample of test compound into the assay plate was carried out using the Mosquito (TTP Labtech, UK). The compound samples were incubated for 2 hours at room temperature with a fixed concentration of CA200645 defined for each receptor (see above) and CHO cell membranes containing the human Adenosine A1 (0.5 μg/well), A2a (0.3 μg/well), A2b (1 μg/well) or A3 (1 μg/well) receptor in 40 μL of assay buffer. Total and non-specific binding of CA200645 was determined in the absence and presence of 10 μM XAC, respectively.
Following 2 hours incubation, the level of CA200645 binding was detected on a Pherastar FSX (BMG Labtech, Germany) using standard TR-FRET settings. The terbium donor was excited with three laser flashes at a wavelength of 337 nm, and donor and acceptor emission was detected at 620 nm and 665 nm wavelengths, respectively. FRET ratios were obtained by multiplying the acceptor/donor ratio value by 10,000. Specific binding was determined by subtracting the non-specific binding FRET ratio from the total binding FRET ratio. Compound IC50 curves were analysed using GraphPad Prism 7.0 (GraphPad, USA) and Ki affinity values were determined from the obtained […] values using the method of Cheng and Prusoff.

T3 sequence (P29274 whole entry): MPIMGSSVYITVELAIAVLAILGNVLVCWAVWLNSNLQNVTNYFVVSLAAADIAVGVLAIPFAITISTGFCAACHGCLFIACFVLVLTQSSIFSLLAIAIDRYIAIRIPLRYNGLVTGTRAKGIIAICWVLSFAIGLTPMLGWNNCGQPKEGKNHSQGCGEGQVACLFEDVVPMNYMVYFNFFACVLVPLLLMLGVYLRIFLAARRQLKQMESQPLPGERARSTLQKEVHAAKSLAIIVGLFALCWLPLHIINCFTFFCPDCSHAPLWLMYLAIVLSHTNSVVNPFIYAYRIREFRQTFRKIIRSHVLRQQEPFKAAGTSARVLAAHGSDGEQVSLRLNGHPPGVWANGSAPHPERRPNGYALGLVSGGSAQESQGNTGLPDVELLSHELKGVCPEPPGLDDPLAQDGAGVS

By Ki is commonly meant the dissociation constant of the complex between target and ligand, obtained from inhibition or displacement. A word on the IC50: it is the midpoint of a concentration-inhibition curve. In the case of `COc1cccc(F)c1CNC(=O)c1cnc(-c2cccc(F)c2)nc1N` [Example 5.2, 4-Amino-N-[(2-fluoro-6-methoxy-phenyl)methyl]-2-(3-fluorophenyl)pyrimidine-5-carboxamide], the Ki in experiment [1] was determined as 66 nM; in experiment [2] it was 113 nM; in experiment [4] (Table 8, Cheng and Prusoff), 20 nM; in experiment [4] (Table 9, further testing), 20 nM. In addition, the IC50 in experiment [3] was 1920 nM.
With `CCOc1cccc(F)c1CNC(=O)c1cnc(-c2cccc(F)c2)nc1N` [Example 5.3, 4-Amino-N-[(2-ethoxy-6-fluoro-phenyl)methyl]-2-(3-fluorophenyl)pyrimidine-5-carboxamide], the inhibition constant Ki in experiment [2] is 341 nM; in experiment [4] (Table 8, Cheng and Prusoff), 20 nM; in experiment [4] (Table 9, further testing), 20 nM. Besides, the IC50 in experiment [3] worked out at 1540 nM.
As to `Nc1nc(-c2ccco2)ncc1C(=O)NC1CCc2ccccc21` (centres unmarked) [Example 5.23, 4-Amino-2-(2-furyl)-N-indan-1-yl-pyrimidine-5-carboxamide], the Ki in experiment [1] was 4750 nM; in experiment [4] (Table 8, Cheng and Prusoff), 10 nM; in experiment [4] (Table 9, further testing), 10 nM. The 50% inhibitory concentration (IC50) in experiment [3] was determined as 381 nM.
In the case of `Nc1nc(-c2cccc(F)c2)ncc1C(=O)NCc1cccc(C(F)(F)F)c1` [Example 10.11, 4-Amino-2-(3-fluorophenyl)-N-[[3-(trifluoromethyl)phenyl]methyl]pyrimidine-5-carboxamide], the inhibition constant (Ki) in experiment [5] was 1850 nM; in experiment [1], 632 nM; in experiment [2] it was 3190 nM; in experiment [4] (Table 8, Cheng and Prusoff), 976 nM; in experiment [4] (Table 9, further testing), 976 nM.
`Nc1nc(-c2cccc(F)c2)ncc1C(=O)NCc1ncccc1Cl` [Example 10.12, 4-Amino-N-[(3-chloro-2-pyridyl)methyl]-2-(3-fluorophenyl)pyrimidine-5-carboxamide]: the inhibition constant Ki in experiment [5] is 371 nM; in experiment [1] it was 400 nM; in experiment [2], 536 nM; in experiment [4] (Table 8, Cheng and Prusoff), 36 nM; in experiment [4] (Table 9, further testing), 36 nM.
Regarding `Cc1cccnc1CNC(=O)c1c(N)nc(-c2ccco2)nc1Cl` [Example 13, 4-Amino-6-chloro-2-(2-furyl)-N-[(3-methyl-2-pyridyl)methyl]pyrimidine-5-carboxamide], the inhibition constant Ki in experiment [5] was 1190 nM; in experiment [1] it was 314 nM; in experiment [2], 3890 nM; in experiment [4] (Table 8, Cheng and Prusoff) it was 20 nM; in experiment [4] (Table 9, further testing) it was 20 nM.
Consider `CC(=O)NCCOc1nc(-c2ccco2)nc(N)c1C(=O)NCc1ncccc1C` [Example 20, 4-(2-Acetamidoethoxy)-6-amino-2-(2-fury)-N-[(3-methyl-2-pyridyl)methyl]pyrimidine-5-carboxamide], for which the inhibitory constant (Ki) was 830 nM in experiment [5]; 109 nM in experiment [1]; 508 nM in experiment [2]; 1.1 nM in experiment [4] (Table 9, further testing).
Consider `Cc1cccnc1CNC(=O)c1c(N)nc(-c2ccco2)nc1OCCO` [Example 20.1, 4-Amino-2-(2-furyl)-6-(2-hydroxyethoxy)-N-[(3-methyl-2-pyridyl)methyl]pyrimidine-5-carboxamide], for which the Ki in experiment [5] was found to be 86 nM; in experiment [1], 5.4 nM; in experiment [2], 107 nM; in experiment [4] (Table 9, further testing), 0.13 nM.
The like results for `Cc1cccnc1CNC(=O)c1c(N)nc(-c2ccco2)nc1OCC(F)(F)F` [Example 20.2, 4-Amino-2-(2-furyl)-N-[(3-methyl-2-pyridyl)methyl]-6-(2,2,2-trifluoroethoxy)pyrimidine-5-carboxamide] were, in that order, 9.9 nM, 4 nM, 37 nM and 0.21 nM.
Consider `Cc1cccnc1CNC(=O)c1c(N)nc(-c2ccco2)nc1OCC(C)C` [Example 20.3, 4-Amino-2-(2-furyl)-6-isobutoxy-N-[(3-methyl-2-pyridyl)methyl]pyrimidine-5-carboxamide], for which the Ki worked out at 1.7 nM in experiment [5]; 4.1 nM in experiment [1]; 174 nM in experiment [2]; 0.47 nM in experiment [4] (Table 9, further testing).
In the case of `COCCOc1nc(-c2ccco2)nc(N)c1C(=O)NCc1ncccc1C` [Example 20.6, 4-Amino-2-(2-furyl)-6-(2-methoxyethoxy)-N-[(3-methyl-2-pyridyl)methyl]pyrimidine-5-carboxamide], the Ki in experiment [5] is 5.6 nM; in experiment [1], 19 nM; in experiment [2], 382 nM; in experiment [4] (Table 9, further testing) it was 0.54 nM.
Consider `Cc1cccnc1CNC(=O)c1c(N)nc(-c2ccco2)nc1OCCCO` [Example 20.8, 4-Amino-2-(2-furyl)-6-(3-hydroxypropoxy)-N-[(3-methyl-2-pyridyl)methyl]pyrimidine-5-carboxamide], for which the Ki in experiment [5] was determined as 24 nM; in experiment [1], 7.5 nM; in experiment [2], 165 nM; in experiment [4] (Table 9, further testing) it was 0.199 nM.
Turning to `CCCOc1nc(-c2ccco2)nc(N)c1C(=O)NCc1ncccc1C` [Example 20.9, 4-Amino-2-(2-furyl)-N-[(3-methyl-2-pyridyl)methyl]-6-propoxy-pyrimidine-5-carboxamide], the inhibition constant (Ki) turned out to be 18 nM in experiment [5]; 44 nM in experiment [1]; 384 nM in experiment [2]; 0.52 nM in experiment [4] (Table 9, further testing).
Consider `COCC(C)Oc1nc(-c2ccco2)nc(N)c1C(=O)NCc1ncccc1C` (centres unmarked) [Example 20.12, 4-Amino-2-(2-furyl)-6-(2-methoxy-1-methyl-ethoxy)-N-[(3-methyl-2-pyridyl)methyl]pyrimidine-5-carboxamide], for which the Ki came out at 1.4 nM in experiment [5]; 13 nM in experiment [1]; 540 nM in experiment [2]; 0.21 nM in experiment [4] (Table 9, further testing).
Turning to `Cc1cccnc1CNC(=O)c1c(N)nc(-c2ccco2)nc1OCCN` [Example 23.1, 4-Amino-6-(2-aminoethoxy)-2-(2-furyl)-N-[(3-methyl-2-pyridyl)methyl]pyrimidine-5-carboxamide], the Ki in experiment [5] came to 73 nM; in experiment [1], 59 nM; in experiment [2], 490 nM; in experiment [4] (Table 9, further testing), 0.62 nM.
In the case of `Cc1cccnc1CNC(=O)c1c(N)nc(-c2ccco2)nc1OCCCN` [Example 23.5, 4-Amino-6-(3-aminopropoxy)-2-(2-furyl)-N-[(3-methyl-2-pyridyl)methyl]pyrimidine-5-carboxamide dihydrochloride], the inhibition constant Ki in experiment [5] stood at 2150 nM; in experiment [1], 1060 nM; in experiment [2], 3060 nM; in experiment [4] (Table 9, further testing) it was 23 nM.
